PMC9962329, “Photocaging of Pyridinylimidazole-Based Covalent JNK3 Inhibitors Affords Spatiotemporal Control of the Binding Affinity in Live Cells” (Pharmaceuticals, 2023)

How the values were obtained:
JNK3 [1] = target: T1, JNK3 (Homo sapiens, UniProt P53779); test: radiometric JNK3 activity assay at Eurofins Discovery; format: biochemical; conditions: for IC50: radiometric JNK3 activity assay; for decreased biological activity compared to parent compound 1: radiometric assay, relative to 1 (IC50 = 6 nM)
JNK3 [2] = target: T1, JNK3; test: NanoBRET TE intracellular JNK3 assay; format: cell-based; conditions: for decreased binding affinity compared to lead structure 1 / IC50: NanoBRET TE intracellular JNK3 assay; for decreased binding affinity compared to lead structure 1: relative to 1 (IC50 = 243 nM); for IC50: tracer K-10 0.25 µM, means of at least two independent experiments, read-out: JNK3 IC50 ± SEM
Procedure: The NanoBRET™ TE intracellular JNK3 assay was performed as previously described by Andreev et al., with minor modifications.
Cells were treated with trypsin and centrifuged (210× g, 5 min) one day prior to the experiment. Afterwards, cells were resuspended in Leibovitz’ L-15 medium, supplemented with 5% FCS and 10 mM HEPES, and the suspension was adjusted to a density of 300.000 cells per mL. Meanwhile the transfection reagent was prepared. For a 96-well plate, transfection carrier DNA (4 µg) (Promega, Fitchburg, WI, USA) and JNK3-NanoLuc® Fusion vector (0.45 µg) (Promega) were diluted in Leibovitz’ L-15 medium (450 µL) and, finally, X-tremeGENE HP (13.5 µL) (Roche Diagnostics, Mannheim, Germany) was added. The mixture was incubated for 20 min at room temperature. Subsequently, the lipid–DNA complex was added to 9 mL of the cell suspension. A total of 80 µL of this cell suspension were added to each well of a white 96-well plate (Brand, Wertheim, Germany), which was incubated for 24 h at 37 °C (no additional CO2).
The fluorescent tracer K-10 (Promega, Mannheim, Germany) was diluted in DMSO to a concentration of 25 µM (100-fold more concentrated than the final assay concentration). This was further diluted 10-fold using the tracer dilution buffer (Promega, Mannheim, Germany), yielding a dilution which was 10-fold more concentrated than the final assay concentration. Next, 10 µL of the final fluorescent tracer dilution were added to the cells (the final concentration of K-10 in the assay was 0.25 µM).

JNK3 [3] = target: T1, JNK3; test: compound washout (kinetic analysis) in the NanoBRET assay; format: cell-based; conditions: 2 h incubation at 10-fold IC50, four washes, tracer 1 µM
Procedure: To study the putative covalent binding of inhibitors 8 and 13, we next applied the compound washout method in the NanoBRET^TM assay. Briefly, we established a protocol where the compound dissociation of 8 and 13 was determined indirectly by their ability to inhibit binding of the ATP-competitive tracer. The covalent inhibitor 1 was used as a positive control, and the propionamide 10 was used as a negative control.
For kinetic analyses experiments, plates were coated with crosslinked gelatin to improve cell adhesion. The transfection of the cells was carried out as described above, but 90 µL of cell suspension were seeded. The next day, cells were first incubated with the test compound in a 10-fold concentration of the respective IC50 value. After 2 h, the unbound compound was removed by washing the cells four times with 100 µL of Leibovitz’ L-15. Furimazine was then added according to the manufacturer`s protocol. Afterwards, a near-saturating concentration of tracer (1 µM) was added, and the measurement was started immediately.

JNK3(C154A)-NLuc = target: T2, JNK3(C154A)-NLuc (Homo sapiens, UniProt P53779, C154A); test: NanoBRET TE intracellular assay with JNK3(C154A)-NLuc mutant; format: cell-based; conditions: single point mutation C154A
T2 construct: mutant made in house by PCR
Procedure: To generate the cDNA of the JNK3(C154A)-NLuc mutant, JNK3-NanoLuc® Fusion vector (Promega) was used as a template, and two partially overlapping primers (5′-[…] and 5′-[…]) (synthesized by Eurofins, Ebersberg) annealed to the template. Phusion HF DNA Polymerase was obtained from New England BioLabs (Frankfurt, Germany). The polymerase chain reaction (PCR) was carried out as described in the Phusion HF polymerase protocol. The PCR product was treated with Dpn I endonuclease and transformed into competent E. coli Top 10 cells. Point mutation was confirmed by sequencing (Eurofins Discovery).

JNK3 [4] = target: T1, JNK3; design: method as in PMID 34081840; conditions: light pulses at 390 nm, trans-cis switch; cited from earlier work
JNK3 [5] = target: T1, JNK3; design: method as in PMID 34081840; conditions: cellular NanoBRET assay, light pulses at 400 nm; cited from earlier work

T1 sequence (P53779 whole entry): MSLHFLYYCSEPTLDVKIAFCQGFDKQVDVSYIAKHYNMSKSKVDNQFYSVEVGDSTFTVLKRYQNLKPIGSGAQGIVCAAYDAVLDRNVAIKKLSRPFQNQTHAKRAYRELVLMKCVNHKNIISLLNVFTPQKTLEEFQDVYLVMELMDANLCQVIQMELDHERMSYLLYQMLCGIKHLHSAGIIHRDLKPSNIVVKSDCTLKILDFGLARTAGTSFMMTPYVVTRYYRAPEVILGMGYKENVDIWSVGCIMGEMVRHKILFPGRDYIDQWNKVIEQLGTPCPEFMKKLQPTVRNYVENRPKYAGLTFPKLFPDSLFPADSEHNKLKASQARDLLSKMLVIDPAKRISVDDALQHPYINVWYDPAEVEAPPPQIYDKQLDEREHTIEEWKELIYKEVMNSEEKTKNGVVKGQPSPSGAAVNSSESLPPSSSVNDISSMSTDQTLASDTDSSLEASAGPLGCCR
T2 sequence (P53779 whole entry C154A): as the sequence (P53779 whole entry) above, with C154A counted along it

| Compound | IC50 (JNK3 [1]) | decreased biological activity compared to parent compound 1 (JNK3 [1]) | decreased binding affinity compared to lead structure 1 (JNK3 [2]) | IC50 (JNK3 [2]) | compound dissociation after washout (displacement by tracer) (JNK3 [3]) | decrease in JNK3 binding by introduction of the photocleavable protecting group (JNK3 [2]; NanoBRET assay, without irradiation, relative to parent 13) | change in binding affinity for JNK3(C154A)-NLuc versus wildtype JNK3-NLuc (JNK3(C154A)-NLuc) | increase in biochemical activity by light (factor) (JNK3 [4]) | increase in inhibitory potency by light (factor) (JNK3 [5]) |
| --- | --- | --- | --- | --- | --- | --- | --- | --- | --- |
| C=CC(=O)Nc1ccc2c(c1)CCc1cc(Nc3cc(-c4c(-c5ccc(F)cc5)nc(SC)n4C)ccn3)ccc1/N=N\2 [compound 2] |  |  |  |  |  |  |  | 30 | factor of only two |
| CCC(=O)Nc1cccc(NC(=O)c2ccc(Nc3cc(-c4c(-c5ccc(F)cc5)nc(SC)n4C)ccn3)cc2)c1 [compound 14, 4-((4-(4-(4-Fluorophenyl)-1-methyl-2-(methylthio)-1H-imidazol-5-yl)pyridin-2-yl)amino)-N-(3-propionamidophenyl)benzamide] | 22 nM |  |  | > 10000 nM |  |  |  |  |  |
| C=CC(=O)Nc1cccc(NC(=O)c2ccc(N(Cc3cc(OC)c(OC)cc3[N+](=O)[O-])c3cc(-c4c(-c5ccc(F)cc5)nc(SC)n4C)ccn3)cc2)c1 [compound 17, N-(3-Acrylamidophenyl)-4-((4,5-dimethoxy-2-nitrobenzyl)(4-(4-(4-fluorophenyl)-1-methyl-2-(methylthio)-1H-imidazol-5-yl)pyridin-2-yl)amino)benzamide hydrotrifluoroacetate] |  |  |  | 9490 ± 538 nM |  | nearly one order of magnitude |  |  |  |
| CCC(=O)Nc1cccc(C(=O)N(C)c2ccc(Nc3cc(-c4c(-c5ccc(F)cc5)nc(SC)n4C)ccn3)cc2)c1 [compound 10, N-(4-((4-(4-(4-Fluorophenyl)-1-methyl-2-(methylthio)-1H-imidazol-5-yl)pyridin-2-yl)amino)phenyl)-N-methyl-3-propionamidobenzamide] | 24 nM |  |  | 5020 ± 97 nM | quickly displaced by the tracer |  |  |  |  |

The next lines start with results.

| IC50 (JNK3 [1]) | decreased biological activity compared to parent compound 1 (JNK3 [1]) | decreased binding affinity compared to lead structure 1 (JNK3 [2]) | IC50 (JNK3 [2]) | compound dissociation after washout (displacement by tracer) (JNK3 [3]) | decrease in JNK3 binding by introduction of the photocleavable protecting group (JNK3 [2]; NanoBRET assay, without irradiation, relative to parent 13) | Compound | change in binding affinity for JNK3(C154A)-NLuc versus wildtype JNK3-NLuc (JNK3(C154A)-NLuc) | increase in biochemical activity by light (factor) (JNK3 [4]) | increase in inhibitory potency by light (factor) (JNK3 [5]) |
| --- | --- | --- | --- | --- | --- | --- | --- | --- | --- |
| 13 nM | two-fold decreased | 5.5 fold | 1060 ± 252 nM | remained persistently bound |  | C=CC(=O)Nc1cccc(NC(=O)c2ccc(Nc3cc(-c4c(-c5ccc(F)cc5)nc(SC)n4C)ccn3)cc2)c1 [compound 13, N-(3-Acrylamidophenyl)-4-((4-(4-(4-fluorophenyl)-1-methyl-2-(methylthio)-1H-imidazol-5-yl)pyridin-2-yl)amino)benzamide hydrotrifluoroacetate] | dramatic decrease in the binding affinity |  |  |
| 6 nM |  |  | 243 ± 75 nM | remained persistently bound |  | C=CC(=O)Nc1cccc(C(=O)Nc2ccc(Nc3cc(-c4c(-c5ccc(F)cc5)nc(SC)n4C)ccn3)cc2)c1 [compound 1, acrylamido-N-(4-((4-(4-(4-fluorophenyl)-1-methyl-2-(methylthio)-1H-imidazol-5-yl)pyridin-2-yl)amino)phenyl)benzamide, reference compound] |  |  |  |
| 14 nM | two-fold decreased | 4 fold | 1360 ± 342 nM | remained persistently bound |  | C=CC(=O)Nc1cccc(C(=O)N(C)c2ccc(Nc3cc(-c4c(-c5ccc(F)cc5)nc(SC)n4C)ccn3)cc2)c1 [compound 8, 3-Acrylamido-N-(4-((4-(4-(4-fluorophenyl)-1-methyl-2-(methylthio)-1H-imidazol-5-yl)pyridin-2-yl)amino)phenyl)-N-methylbenzamide hydrotrifluoroacetate] | dramatic decrease in the binding affinity |  |  |
